The values below come from PMC2878602 (Fems Yeast Research, 2010).

Test [1] deals with T1, Agt1 (AGT1 from ale strain A60) (Saccharomyces cerevisiae, UniProt P53048).
T1 sequence (P53048 1-616): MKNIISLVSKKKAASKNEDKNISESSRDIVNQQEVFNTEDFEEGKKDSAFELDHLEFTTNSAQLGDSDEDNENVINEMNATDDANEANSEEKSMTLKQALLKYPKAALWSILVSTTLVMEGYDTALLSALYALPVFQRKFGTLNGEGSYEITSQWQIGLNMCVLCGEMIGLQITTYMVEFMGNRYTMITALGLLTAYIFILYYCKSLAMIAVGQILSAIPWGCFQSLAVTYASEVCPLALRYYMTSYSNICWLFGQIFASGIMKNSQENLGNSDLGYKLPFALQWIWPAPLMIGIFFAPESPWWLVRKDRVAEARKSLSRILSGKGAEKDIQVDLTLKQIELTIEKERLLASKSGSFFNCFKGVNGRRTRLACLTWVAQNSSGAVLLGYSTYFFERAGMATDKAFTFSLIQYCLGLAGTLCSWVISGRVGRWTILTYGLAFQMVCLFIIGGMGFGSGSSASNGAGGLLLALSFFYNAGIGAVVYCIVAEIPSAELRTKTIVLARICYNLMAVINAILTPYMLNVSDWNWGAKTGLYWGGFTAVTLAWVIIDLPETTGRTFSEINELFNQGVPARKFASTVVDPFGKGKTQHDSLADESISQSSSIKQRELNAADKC
Kind of test: inhibition of […]-maltose uptake into intact yeast transformants. Type of test: cell-based.

The target of test [2] is T2, Agt1 (AGT1 from ale strain A179) (Saccharomyces cerevisiae, UniProt P53048).
T2 sequence (P53048 1-616): T1 sequence (P53048 1-616)
The test is described as above. Type of test: cell-based.

The mark [3] stands for this setting: read-out: % inhibition at 75 mM.
The mark [4] stands for this setting: read-out: % inhibition at 50 mM.

As usually defined, the inhibition is the relative decrease from the control value, in per cent.

For the molecule `OC[C@H]1O[C@H](O[C@H]2O[C@H](CO)[C@@H](O)[C@H](O)[C@H]2O)[C@H](O)[C@@H](O)[C@@H]1O` [trehalose], the inhibition at 75000 µM in test [1] (setting [3]) worked out at 94%; in test [2] (setting [3]) it was 85%.
As to `OC[C@H]1O[C@H](O[C@H]2[C@H](O)[C@@H](O)[C@@H](O[C@H]3[C@H](O)[C@@H](O)C(O)O[C@@H]3CO)O[C@@H]2CO)[C@H](O)[C@@H](O)[C@@H]1O` (stereo partly shown) [maltotriose], the figures for the inhibition at 50000 µM in test [1] (setting [4]) and in test [2] (setting [4]) were 85% and 79%, respectively.
